Measurements: patent US11661400B2, “NADPH oxidase inhibitors, pharmaceutical composition comprising the same, and application thereof” (TAIWANJ PHARMACEUTICALS CO., LTD., priority 2018, dated 2023)

Assays:
NOX4 = target: T1, NOX4 (Homo sapiens, UniProt Q9NPH5); experiment: NOX4 HEK293 overexpression cell-based assay (Amplex Red H2O2); conditions: HEK293 cells stably overexpressing NOX4, DMSO = 0, GKT137831 = 100; for inhibition at 1 µM: HEK293, 1000 nM; for inhibition at 0.1 µM: HEK293, 100 nM
T1 construct: expressed in transfected cells
T1 sequence (Q9NPH5 1-578): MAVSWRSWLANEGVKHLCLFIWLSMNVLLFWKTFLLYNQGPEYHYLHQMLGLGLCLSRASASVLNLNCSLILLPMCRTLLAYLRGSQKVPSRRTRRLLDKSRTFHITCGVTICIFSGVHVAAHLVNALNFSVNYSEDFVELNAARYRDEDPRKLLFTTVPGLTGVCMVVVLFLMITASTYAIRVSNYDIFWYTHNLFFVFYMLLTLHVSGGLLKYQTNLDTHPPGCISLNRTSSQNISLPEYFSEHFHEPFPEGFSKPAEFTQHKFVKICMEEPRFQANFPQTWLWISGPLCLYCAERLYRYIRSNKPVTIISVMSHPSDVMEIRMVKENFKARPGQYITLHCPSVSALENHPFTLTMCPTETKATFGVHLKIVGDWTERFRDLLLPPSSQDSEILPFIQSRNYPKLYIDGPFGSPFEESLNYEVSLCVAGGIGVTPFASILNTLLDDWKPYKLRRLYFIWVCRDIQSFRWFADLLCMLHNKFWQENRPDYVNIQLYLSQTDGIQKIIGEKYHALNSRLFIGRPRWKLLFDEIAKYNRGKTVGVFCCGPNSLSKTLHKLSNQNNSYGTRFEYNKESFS
T1 sequence (P13498 2-195 partner limits assumed): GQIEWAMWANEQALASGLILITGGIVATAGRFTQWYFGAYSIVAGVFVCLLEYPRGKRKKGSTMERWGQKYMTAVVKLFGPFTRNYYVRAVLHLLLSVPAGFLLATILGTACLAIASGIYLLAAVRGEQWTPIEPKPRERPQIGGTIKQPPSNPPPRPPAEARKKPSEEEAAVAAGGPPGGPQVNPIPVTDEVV
Protocol: Extracellular H2O2 measurement using Amplex™ Red Hydrogen Peroxide/Peroxidase Assay Kit (Catalog number: A22188; Invitrogen, Carlsbad, Calif., USA) was used to detect extracellular H2O2 release by HEK293 cells stably overexpressing NOX4. NOX4 clonal cells in log-phase growth were trypsinized, washed, and dispersed thoroughly. Following trypsinization, the cells (3×10^4) were resuspended in 100 μL of 1× Krebs-Ringer phosphate glucose (KRPG) buffer containing various concentrations of GKT137831 or test compounds and incubated at 37° C. for 30 min. Cells were mixed with 100 μL of Amplex Red reagent solution containing 50 μM Amplex Red and 0.1 units/mL of HRP in KRPG buffer; each assay condition was evaluated induplicate. The samples were incubated at 37° C. for 90 mins in the dark, and then centrifuged at 2,500 g for 5 mins. The supernatants were loaded to a 96 well plate, and then measured using a SpectraMax i3 Multiplate reader (Molecular Devices, Sunnyvale, Calif., USA) at 530 nm excitation and 590 nm emission respectively. DMSO and GKT137831 wells were applied as negative and positive controls, and the activities measured were set to 0 and 100, respectively.

NOX2 = target: T2, NOX2 (Homo sapiens, UniProt P04839); experiment: NOX2 HL60 cell-based assay (PMA oxidative burst, L012 chemiluminescence); conditions: DMSO-differentiated HL-60 cells, PMA-stimulated; for inhibition at 0.1 µM: HL-60, 100 nM; for inhibition at 1 µM: HL-60, 1000 nM
T2 construct: HL-60 cells, rich in NOX2 expression; endogenous in cells; host or cells: DMSO-differentiated HL-60
T2 sequence (P04839 2-570 limits assumed): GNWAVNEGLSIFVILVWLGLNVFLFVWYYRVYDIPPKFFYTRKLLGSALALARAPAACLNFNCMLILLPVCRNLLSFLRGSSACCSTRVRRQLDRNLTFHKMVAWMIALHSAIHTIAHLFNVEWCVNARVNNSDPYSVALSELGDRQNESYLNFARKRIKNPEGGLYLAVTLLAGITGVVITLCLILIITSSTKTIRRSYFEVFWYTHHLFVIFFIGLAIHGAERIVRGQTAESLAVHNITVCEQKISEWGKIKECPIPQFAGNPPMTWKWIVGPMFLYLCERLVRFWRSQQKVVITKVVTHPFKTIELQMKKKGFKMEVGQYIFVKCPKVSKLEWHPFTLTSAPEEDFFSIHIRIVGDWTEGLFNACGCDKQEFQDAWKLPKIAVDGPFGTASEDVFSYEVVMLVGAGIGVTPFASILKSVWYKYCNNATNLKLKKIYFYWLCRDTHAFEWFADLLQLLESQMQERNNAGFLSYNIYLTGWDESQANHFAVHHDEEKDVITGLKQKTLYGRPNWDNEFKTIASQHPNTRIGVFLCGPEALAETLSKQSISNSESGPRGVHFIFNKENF
T2 sequence (P13498 2-195 partner limits assumed): T1 sequence (P13498 2-195 partner limits assumed)
Protocol: NOX2 HL60 Cell-Based Assay:
HL-60 cells, rich in NOX2 expression, was stimulated to undergo oxidative burst by phorbol myristate acetate (PMA). The ROS produced during this process was measured using the O2^−-specific chemiluminescent probe L012. L012 was added to DMSO-differentiated HL-60 cell suspensions to a final concentration of 100 μM. Then, 80 μL aliquots of cell suspension (2.5×10^5 cells) were transferred to individual wells of a 96-well plate. Test compounds were directly added to the wells at the specified concentrations. Following a 30-60 mins incubation at 37° C. in the dark, the oxidative burst was initiated by the addition of 10 ng/mL PMA, and the chemiluminescence signal was recorded every 5 min over a period of 60 mins in a SpectraMax i3 Multiplate reader (Molecular Devices, Sunnyvale, Calif., USA). • NOX4 HEK293 Overexpression Cell-Based Assay: […]

NOX1 = target: T3, NOX1 (Homo sapiens, UniProt Q9Y5S8); experiment: NOX1 HT29 cell-based assay (luminol/HRP luminescence); conditions: HT-29, HT29 cells, DMSO = 0%, GKT137831 = 100%; for inhibition at 0.1 µM: 100 nM; for inhibition at 1 µM: 1000 nM
T3 construct: endogenous in cells; host or cells: HT29
T3 sequence (Q9Y5S8 1-564): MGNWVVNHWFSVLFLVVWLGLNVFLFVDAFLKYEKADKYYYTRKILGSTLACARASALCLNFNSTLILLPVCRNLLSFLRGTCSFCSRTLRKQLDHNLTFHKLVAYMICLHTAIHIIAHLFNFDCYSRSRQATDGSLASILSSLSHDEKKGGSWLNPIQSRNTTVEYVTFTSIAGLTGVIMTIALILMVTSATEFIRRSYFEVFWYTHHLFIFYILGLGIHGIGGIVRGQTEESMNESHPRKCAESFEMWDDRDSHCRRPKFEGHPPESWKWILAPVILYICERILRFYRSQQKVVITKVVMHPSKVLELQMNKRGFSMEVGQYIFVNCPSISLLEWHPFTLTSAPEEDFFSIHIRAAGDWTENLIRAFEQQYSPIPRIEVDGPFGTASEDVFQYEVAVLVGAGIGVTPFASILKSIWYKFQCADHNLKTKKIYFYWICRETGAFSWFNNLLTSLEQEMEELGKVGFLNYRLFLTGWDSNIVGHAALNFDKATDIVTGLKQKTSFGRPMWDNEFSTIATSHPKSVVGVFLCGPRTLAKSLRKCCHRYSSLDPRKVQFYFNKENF
T3 sequence (P13498 2-195 partner limits assumed): T1 sequence (P13498 2-195 partner limits assumed)
Protocol: NOX1 HT29 Cell-Based Assay:
HT29 cells were cultured in T75 flask (Corning) and when 70-80% confluence was reached, cells were trypsinized, harvested in HBSS and counted. 1-2×10^5 cells were dispensed into individual wells in 70 μl final volume (96-well plates, white Corning). Cells were treated for 30-60 mins at 37° C. with 10 μl of GKT137831, DMSO and test compounds from their respective assay plates. This will correspond to a final concentration of 100 nM, 1000 nM GKT137831 or test compounds, and 0.1% DMSO. 20 μL of a mixture containing 100 μM luminol plus 0.4 units of HRP (final concentration) was added. Luminescence was quantified using a SpectraMax i3 Multiplate reader (Molecular Devices, Sunnyvale, Calif., USA). As designed, compounds that inhibit NOX1 activity will reduce cellular ROS production, leading to reduced probe-ROS interactions and reduced well luminescence. Compounds were tested in duplicate at a concentration of 100 nM and 1000 nM. DMSO and GKT137831 wells were applied as negative and positive controls, and the activities measured were set to 0% and 100%, respectively.

inhibition at 1 µM (NOX4) [%]	inhibition at 0.1 µM (NOX2) [%]	inhibition at 0.1 µM (NOX1) [%]	inhibition at 1 µM (NOX1) [%]	inhibition at 1 µM (NOX2) [%]	inhibition at 0.1 µM (NOX4) [%]	Compound	% Inhibition NOX4 (NOX4; 100 nM)	% Inhibition NOX2 (NOX2; 1000 nM)	% Inhibition NOX2 (NOX2; 100 nM)	% Inhibition NOX2 (NOX2; 100 nM, 0.1 µM)	% Inhibition NOX2 (NOX2; 1000 nM, 1 µM)	% Inhibition NOX4 (NOX4; 1000 nM, 1 µM)
50 to 79		≥ 80	≥ 80		50 to 79	COc1cc2[nH]c(-c3ccccc3C(F)(F)F)c(O)c(=O)c2cc1OC [Compound 17]				C (the percent of inhibition of NOX by the compounds ranges from 2000 to 49%)	B (the percent of inhibition of NOX by the compounds ranges from 50% o to 79% o)	
50 to 79		≥ 80	≥ 80	50 to 79		COc1cc2[nH]c(-c3ccccc3F)c(O)c(=O)c2cc1OC [Compound 18]	C (the percent of inhibition of NOX by the compounds ranges from 2000 to 49%)		C (the percent of inhibition of NOX by the compounds ranges from 2000 to 49%)			
50 to 79	≤ 19	≥ 80	≥ 80	50 to 79	≤ 19	COc1ccccc1-c1[nH]c2c(OC)c(OC)c(OC)cc2c(=O)c1O [Compound 19]						
	50 to 79	≥ 80	≥ 80			COc1cc2[nH]c(-c3ccccc3OC(F)(F)F)c(O)c(=O)c2cc1OC [Compound 20]	C (the percent of inhibition of NOX by the compounds ranges from 2000 to 49%)				A (the percent of inhibition of NOX by the compounds is larger than or equals to 80%)	B (the percent of inhibition of NOX by the compounds ranges from 50% o to 79% o)

Continued, compound first:

Compound	inhibition at 1 µM (NOX4) [%]	inhibition at 0.1 µM (NOX2) [%]	inhibition at 0.1 µM (NOX1) [%]	inhibition at 1 µM (NOX1) [%]	inhibition at 1 µM (NOX2) [%]	inhibition at 0.1 µM (NOX4) [%]	% Inhibition NOX4 (NOX4; 100 nM)	% Inhibition NOX2 (NOX2; 1000 nM)	% Inhibition NOX2 (NOX2; 100 nM)	% Inhibition NOX2 (NOX2; 100 nM, 0.1 µM)	% Inhibition NOX2 (NOX2; 1000 nM, 1 µM)	% Inhibition NOX4 (NOX4; 1000 nM, 1 µM)
COc1ccc(-c2[nH]c3ccsc3c(=O)c2O)cc1 [Compound 10]	≥ 80	≤ 19	≥ 80	≥ 80			C (the percent of inhibition of NOX by the compounds ranges from 2000 to 49%)	C (the percent of inhibition of NOX by the compounds ranges from 2000 to 49%)				
COc1cc2[nH]c(-c3ccc(N4CCCC4)cc3)c(O)c(=O)c2cc1OC [Compound 11]	≥ 80	≤ 19	≤ 19	50 to 79	≤ 19		C (the percent of inhibition of NOX by the compounds ranges from 2000 to 49%)					
COc1cc2[nH]c(-c3ccc(C(F)(F)F)cc3)c(O)c(=O)c2cc1OC [Compound 12]	≥ 80	≤ 19	≤ 19	≥ 80	≤ 19	≤ 19						
COc1cc2[nH]c(-c3ccc(F)cc3)c(O)c(=O)c2cc1OC [Compound 13]	≥ 80	≤ 19	≥ 80	≥ 80	≥ 80		C (the percent of inhibition of NOX by the compounds ranges from 2000 to 49%)					
COc1cc2[nH]c(C(C)(C)C)c(O)c(=O)c2cc1OC [Compound 14]	≤ 19	≤ 19	≤ 19	≥ 80	≤ 19	≤ 19						
COc1ccc(-c2[nH]c3cc(OC)c(OC)cc3c(=O)c2O)c(OC)c1 [Compound 15]	≥ 80		≥ 80	≥ 80	≥ 80		C (the percent of inhibition of NOX by the compounds ranges from 2000 to 49%)		C (the percent of inhibition of NOX by the compounds ranges from 2000 to 49%)			
COc1cc2[nH]c(-c3ccccc3C)c(O)c(=O)c2cc1OC [Compound 16]	50 to 79		≥ 80	≥ 80	≥ 80	50 to 79			C (the percent of inhibition of NOX by the compounds ranges from 2000 to 49%)			
